Data published in article PMC9554508, “ARumenamides: A novel class of potential antiarrhythmic compounds” (Frontiers in Pharmacology, 2022).
pIC50: −log10 of the molar value.

Target: T1, Nav1.5 (wild type; α-subunit co-transfected with the β1 subunit) (Homo sapiens, UniProt Q14524)
T1 construct: gene SCN5A; full-length alpha subunit transiently co-transfected with beta1 subunit and eGFP (separate cDNAs) in HEK293; with Sodium channel regulatory subunit beta-1
Experiment: whole-cell patch clamp, peak INa block at -20 mV, Hill fit
Assay type: cell-based
Description: whole-cell patch clamp, peak INa block at -20 mV, Hill fit on Nav1.5 (wild type; α-subunit co-transfected with the β1 subunit)

T1 sequence (Q14524 whole entry): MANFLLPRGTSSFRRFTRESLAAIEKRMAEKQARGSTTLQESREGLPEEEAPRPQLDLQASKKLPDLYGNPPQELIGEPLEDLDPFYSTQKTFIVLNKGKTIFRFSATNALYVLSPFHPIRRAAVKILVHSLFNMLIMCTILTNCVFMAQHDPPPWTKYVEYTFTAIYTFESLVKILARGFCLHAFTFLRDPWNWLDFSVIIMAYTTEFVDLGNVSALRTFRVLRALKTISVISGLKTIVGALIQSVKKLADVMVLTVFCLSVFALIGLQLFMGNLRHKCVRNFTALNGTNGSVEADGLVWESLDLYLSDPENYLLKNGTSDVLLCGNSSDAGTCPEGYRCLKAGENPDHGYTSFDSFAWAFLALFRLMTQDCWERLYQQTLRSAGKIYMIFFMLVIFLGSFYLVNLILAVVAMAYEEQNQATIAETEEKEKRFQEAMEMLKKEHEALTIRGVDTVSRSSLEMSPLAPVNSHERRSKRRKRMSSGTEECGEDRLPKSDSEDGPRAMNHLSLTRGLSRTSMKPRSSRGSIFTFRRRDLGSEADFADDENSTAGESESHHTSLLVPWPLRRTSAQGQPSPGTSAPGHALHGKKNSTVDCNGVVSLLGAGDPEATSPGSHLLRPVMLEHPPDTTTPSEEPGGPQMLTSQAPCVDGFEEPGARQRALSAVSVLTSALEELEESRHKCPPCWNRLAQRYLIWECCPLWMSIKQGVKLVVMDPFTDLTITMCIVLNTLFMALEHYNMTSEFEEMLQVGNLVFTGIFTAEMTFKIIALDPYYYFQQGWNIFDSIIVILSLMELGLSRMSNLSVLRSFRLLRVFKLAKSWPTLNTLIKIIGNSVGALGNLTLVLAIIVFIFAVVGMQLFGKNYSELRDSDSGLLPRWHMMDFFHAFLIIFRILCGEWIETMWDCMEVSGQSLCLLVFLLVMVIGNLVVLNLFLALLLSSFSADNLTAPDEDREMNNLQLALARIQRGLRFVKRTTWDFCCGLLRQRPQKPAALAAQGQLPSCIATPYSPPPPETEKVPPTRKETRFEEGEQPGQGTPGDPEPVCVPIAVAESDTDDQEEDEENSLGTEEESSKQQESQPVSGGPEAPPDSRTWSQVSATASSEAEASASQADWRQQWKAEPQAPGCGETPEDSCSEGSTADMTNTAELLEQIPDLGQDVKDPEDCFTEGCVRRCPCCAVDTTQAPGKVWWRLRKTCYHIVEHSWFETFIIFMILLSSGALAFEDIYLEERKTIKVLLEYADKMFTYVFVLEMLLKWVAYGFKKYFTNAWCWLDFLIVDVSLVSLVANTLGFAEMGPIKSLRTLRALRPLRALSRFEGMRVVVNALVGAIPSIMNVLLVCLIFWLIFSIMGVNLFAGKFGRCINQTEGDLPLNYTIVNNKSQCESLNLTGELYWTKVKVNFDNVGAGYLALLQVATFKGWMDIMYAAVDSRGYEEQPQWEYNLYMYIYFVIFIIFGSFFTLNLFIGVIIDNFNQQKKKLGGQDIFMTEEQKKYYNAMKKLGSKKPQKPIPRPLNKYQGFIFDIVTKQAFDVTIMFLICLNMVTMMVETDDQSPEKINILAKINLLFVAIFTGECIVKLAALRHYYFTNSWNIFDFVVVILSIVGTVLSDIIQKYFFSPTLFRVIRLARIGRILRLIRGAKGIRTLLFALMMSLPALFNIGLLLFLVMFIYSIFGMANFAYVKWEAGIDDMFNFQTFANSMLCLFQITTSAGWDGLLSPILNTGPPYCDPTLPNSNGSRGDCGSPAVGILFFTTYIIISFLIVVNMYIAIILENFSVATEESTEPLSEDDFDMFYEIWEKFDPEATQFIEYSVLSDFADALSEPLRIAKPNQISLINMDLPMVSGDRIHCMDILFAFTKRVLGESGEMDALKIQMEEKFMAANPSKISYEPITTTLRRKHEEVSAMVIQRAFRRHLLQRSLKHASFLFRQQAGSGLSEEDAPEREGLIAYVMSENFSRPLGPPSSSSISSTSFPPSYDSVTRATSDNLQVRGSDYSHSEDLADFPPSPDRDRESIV
T1 sequence (Q07699 19-218 partner): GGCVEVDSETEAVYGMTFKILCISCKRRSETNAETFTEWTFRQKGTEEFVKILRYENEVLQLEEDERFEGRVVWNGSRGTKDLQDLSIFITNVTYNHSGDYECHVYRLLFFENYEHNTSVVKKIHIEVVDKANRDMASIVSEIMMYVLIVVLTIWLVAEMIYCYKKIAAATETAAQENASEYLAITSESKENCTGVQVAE

Structure (SMILES): O=C(NCc1ccco1)c1ccc2[nH]c(=O)c(=O)[nH]c2c1 [AR-051, N-(2-furylmethyl)-2,3-dioxo-quinoxaline-6-carboxamide]
- pIC50: 5.12

Structure (SMILES): CCc1ccccc1NS(=O)(=O)c1ccc2[nH]c(=O)[nH]c2c1 [AR-807, N-(2-ethylphenyl)-2-oxo-benzimidazole-5-sulfonamide]
- pIC50: 5.01

Structure (SMILES): CN(C)[C@@H](CNC(=O)c1ccc2[nH]c(=O)c(=O)[nH]c2c1)c1ccco1 [AR-189, N-[(2S)-2-(dimethylamino)-2-(2-furyl)ethyl]-2,3-dioxo-quinoxaline-6-carboxamide]
- pIC50: 4.90

Structure (SMILES): C=CCNS(=O)(=O)c1ccc2[nH]c(=O)[nH]c2c1 [AR-674, N-allyl-2-oxo-benzimidazole-5-sulfonamide]
- pIC50: 5.19

Structure (SMILES): COc1cccc(NS(=O)(=O)c2ccc3[nH]c(=O)[nH]c3c2)c1 [AR-802, N-(3-methoxyphenyl)-2-oxo-benzimidazole-5-sulfonamide]
- pIC50: 4.46
